“Also recorded” adds a separate entry of the source. Read-outs that look alike come from different tables or passages of the source.
Experiments:
DDX5 = target: T1, DDX5 (Homo sapiens, UniProt P17844); format: cell-based; settings: FaDu and A549, 0, 10, 100 nM, 24 hours
T1 construct: endogenous in cells; host or cells: FaDu and A549 cell lines

cancer cells [1] = settings: cited from earlier work
DNA topoisomerase-1 = target: T2, DNA topoisomerase-1 (Homo sapiens, UniProt P11387); settings: cited from earlier work
T2 sequence (P11387 1-765): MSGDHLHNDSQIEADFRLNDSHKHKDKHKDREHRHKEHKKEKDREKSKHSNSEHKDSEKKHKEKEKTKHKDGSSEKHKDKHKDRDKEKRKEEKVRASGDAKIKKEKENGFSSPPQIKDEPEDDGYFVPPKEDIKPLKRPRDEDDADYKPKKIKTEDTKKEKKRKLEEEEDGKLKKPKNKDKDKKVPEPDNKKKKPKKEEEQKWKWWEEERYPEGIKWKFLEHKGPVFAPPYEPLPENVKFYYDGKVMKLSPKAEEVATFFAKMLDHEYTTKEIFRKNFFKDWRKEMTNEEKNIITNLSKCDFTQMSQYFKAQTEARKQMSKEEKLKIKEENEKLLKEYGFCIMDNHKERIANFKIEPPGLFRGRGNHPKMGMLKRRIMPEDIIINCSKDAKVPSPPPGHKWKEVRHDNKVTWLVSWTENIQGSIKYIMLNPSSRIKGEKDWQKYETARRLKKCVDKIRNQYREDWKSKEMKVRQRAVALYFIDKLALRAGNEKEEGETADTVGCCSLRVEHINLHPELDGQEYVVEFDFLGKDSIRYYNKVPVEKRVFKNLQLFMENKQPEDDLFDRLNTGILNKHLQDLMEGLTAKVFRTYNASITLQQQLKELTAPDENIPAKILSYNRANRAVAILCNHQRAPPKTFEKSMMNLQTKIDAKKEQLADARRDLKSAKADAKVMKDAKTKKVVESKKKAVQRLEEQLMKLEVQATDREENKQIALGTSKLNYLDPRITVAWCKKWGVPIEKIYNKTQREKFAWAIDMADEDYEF

[2] = system: cancer cell line xenograft models; experiment: Cancer cell line xenograft models, FL118 versus SN-38; format: in vivo; settings: same amount as SN-38
[3] = system: survivin, cIAP2, Mcl-1, XIAP; experiment: Western blotting of anti-apoptotic protein expression; settings: HCT-8 and FaDu cell lines; FIG. 17
cancer cells [4] = experiment: Cytotoxicity in cancer cell lines; format: cell-based; settings: 140 cell lines from various cancer types, most cancer cells
ABCG2 transporter = target: T3, ABCG2 transporter (Homo sapiens, UniProt Q9UNQ0); experiment: Effect of ABCG2 transporter on drug; format: cell-based
T3 sequence (Q9UNQ0 1-655): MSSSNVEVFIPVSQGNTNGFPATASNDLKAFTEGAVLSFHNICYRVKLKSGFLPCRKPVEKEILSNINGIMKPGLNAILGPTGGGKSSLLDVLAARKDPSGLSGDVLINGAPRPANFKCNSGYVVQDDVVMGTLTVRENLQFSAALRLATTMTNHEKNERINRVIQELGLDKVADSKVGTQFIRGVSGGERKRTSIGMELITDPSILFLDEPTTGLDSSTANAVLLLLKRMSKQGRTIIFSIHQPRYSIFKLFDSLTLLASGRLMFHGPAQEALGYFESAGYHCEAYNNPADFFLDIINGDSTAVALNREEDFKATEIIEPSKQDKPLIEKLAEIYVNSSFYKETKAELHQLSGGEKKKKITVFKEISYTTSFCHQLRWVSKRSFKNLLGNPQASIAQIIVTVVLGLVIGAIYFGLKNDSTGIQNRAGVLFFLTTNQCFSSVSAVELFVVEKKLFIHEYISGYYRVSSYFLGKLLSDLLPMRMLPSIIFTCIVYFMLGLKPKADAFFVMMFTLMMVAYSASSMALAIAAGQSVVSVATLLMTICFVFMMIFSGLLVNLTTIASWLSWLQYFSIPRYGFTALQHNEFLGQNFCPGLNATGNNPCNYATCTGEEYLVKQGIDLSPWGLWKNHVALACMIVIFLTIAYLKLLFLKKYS

GLP-toxicity tests = format: in vivo; settings: mice and beagle dogs
[5] = system: FaDu cell line not expressing ABCG2; experiment: In vitro cell viability test, FaDu; settings: FIG. 28, 3 days
[6] = human, in vivo; cited from earlier work

T1 sequence (P17844 whole entry): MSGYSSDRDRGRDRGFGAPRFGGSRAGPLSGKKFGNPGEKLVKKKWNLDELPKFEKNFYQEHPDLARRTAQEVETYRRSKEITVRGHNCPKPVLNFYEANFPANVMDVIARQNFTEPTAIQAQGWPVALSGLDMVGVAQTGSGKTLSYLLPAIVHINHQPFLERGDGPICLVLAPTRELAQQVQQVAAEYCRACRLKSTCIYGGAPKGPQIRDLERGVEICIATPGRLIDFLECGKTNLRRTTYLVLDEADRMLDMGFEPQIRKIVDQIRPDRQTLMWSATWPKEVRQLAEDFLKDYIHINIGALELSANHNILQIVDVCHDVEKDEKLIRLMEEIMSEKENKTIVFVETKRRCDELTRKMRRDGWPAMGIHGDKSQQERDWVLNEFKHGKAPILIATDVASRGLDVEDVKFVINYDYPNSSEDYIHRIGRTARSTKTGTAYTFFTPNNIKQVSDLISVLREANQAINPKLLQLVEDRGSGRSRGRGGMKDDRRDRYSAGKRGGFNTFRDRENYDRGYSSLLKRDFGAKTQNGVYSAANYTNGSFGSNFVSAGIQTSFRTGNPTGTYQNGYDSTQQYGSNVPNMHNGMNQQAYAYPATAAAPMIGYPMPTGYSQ

For CC[C@@]1(O)C(=O)OCc2c1cc1n(c2=O)Cc2c-1nc1cc3c(c4c1c2[C@@H](N)CC4)OCO3 (single isomer, unassigned) [PBX-7011], which DDX5 degradation (DDX5) is on record?
Its DDX5 degradation is “degrading DDX5”.

And the DDX5 degradation (DDX5; listed as 7011)?
The DDX5 degradation was “followed by 7011, 7016, and 7014 in this order”.

Which results are given for CC[C@@]1(O)C(=O)OCc2c1cc1n(c2=O)Cc2c-1nc1cc(F)c(C)c3c1c2[C@@H](NC(=O)CO)CC3 [Dxd]?
DDX5 degradation (DDX5): exhibits a MoA that degrades the DDX5 protein; cytotoxicity / activity in cancer cells relative to SN-38 (cancer cells [1]): about 10 times; IC50 (DNA topoisomerase-1): 310 nM

Which results are given for CC[C@@]1(O)C(=O)OCc2c1cc1n(c2=O)Cc2cc3cc4c(cc3nc2-1)OCO4 [FL118]?
DDX5 degradation (DDX5): superior to other substances; efficacy compared to SN-38 [2]: superior efficiency compared to SN-38; also recorded: strong tumor regression efficacy compared to SN-38; downregulating a tumor protein compared to SN-38 [3]: better effect in downregulating a tumor protein; IC50 (cancer cells [4]): < 100 nM; effect of ABCG2 transporter (ABCG2 transporter): not affected by the ABCG2 transporter; safety (GLP-toxicity tests): excellent safety

For CC[C@@]1(O)C(=O)OCc2c1cc1n(c2=O)Cc2c-1nc1cc3c(c4c1c2[C@@H](NC(=O)CO)CC4)OCO3 [PBX-7014], which DDX5 degradation (DDX5) is on record?
The DDX5 degradation was “degrading DDX5”.

What about the DDX5 degradation (DDX5; listed as 7014) of the same compound?
The DDX5 degradation was “followed by 7011, 7016, and 7014 in this order”.

For CC[C@@]1(O)C(=O)OCc2c1cc1n(c2=O)Cc2c-1nc1cc3c(c4c1c2[C@@H](NC(=O)[C@@H](C)O)CC4)OCO3 [PBX-7016], which DDX5 degradation (DDX5) is on record?
The DDX5 degradation was “degrading DDX5; also recorded: inhibits DDX5 in a concentration-dependent manner; also recorded: works better than PBX-7014”.

What about the DDX5 degradation (DDX5; listed as 7016) of the same compound?
Its DDX5 degradation is “followed by 7011, 7016, and 7014 in this order”.

Which apoptotic efficacy [5] does the source give for CC[C@@]1(O)C(=O)OCc2c1cc1n(c2=O)Cc2c-1nc1cc3c(c4c1c2[C@@H](NC(=O)[C@@H](O)C1CC1)CC4)OCO3 [PBX-7024] here?
The apoptotic efficacy was “potent apoptotic efficacy”.

For CC[C@@]1(O)C(=O)OCc2c1cc1n(c2=O)Cc2c-1nc1cc(F)c(C)c3c1c2[C@@H](N)CC3 [exatecan], which DDX5 degradation (DDX5) is on record?
Its DDX5 degradation is “exhibits a MoA that degrades the DDX5 protein”.

And the “downregulating a tumor protein compared to SN-38” value [3]?
The value was “better effect in downregulating a tumor protein”.

Which “diarrhea of all grades” value [6] does the source give for Trodelvy here?
The value was 65%.

What about the “febrile neutropenia, patients” value [6] of the same compound?
Its value is 7%.

What about the “neutropenia grade 3 or higher” value [6] of the same compound?
The value was 47%.

What about the “neutropenia of all grades” value [6] of the same compound?
Its value is 61%.

What about the “neutropenic colitis, patients” value [6] of the same compound?
Its value is 0.5%.

Source: patent US20250325690A1, “ANTIBODY-DRUG CONJUGATE WITH TWO TYPES OF DRUG-LINKER CONJUGATES ON SINGLE ANTIBODY” (priority 2022, published 2025)
